Results on four molecules are retold here after US20210127673A1, “HERBICIDES” (SYNGENTA PARTICIPATIONS AG, priority 2016, published 2021).

What all share (type): in vivo
Holding throughout (details): 1000 g/ha, evaluated after 13 days

The subject of assay [1] is Lolium perenne (LOLPE). Briefly: Pre-emergence herbicidal activity, Lolium perenne. Also on record: key: 5=total damage to plant; 0=no damage to plant. The essentials:
(§1)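 Seeds sown in standard soil in pots, grown one day in a glasshouse (24/16 °C day/night, 14 h light, 65% humidity), then sprayed pre-emergence with compound in acetone/water (50:50) containing 0.5% Tween 20. Plants were scored after 13 days on a 0–5 scale (5 = total damage, 0 = none).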

In assay [2] the test system is Avena fatua (AVEFA). Nature of the assay: Pre-emergence herbicidal activity, Avena fatua. Also on record: key: 5=total damage to plant; 0=no damage to plant. The essentials: as §1
Assay [3] concerns Setaria faberi (SETFA). Briefly: Post-emergence herbicidal activity, Setaria faberi. On the set-up: key: 5=total damage to plant; 0=no damage to plant. The procedure, abridged: (§2)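 Glasshouse post-emergence spray test: seedlings treated at 8 days after sowing with compound formulated in 50:50 acetone/water plus 0.5% Tween 20, then grown on at 24/16 °C, 14 h light, 65% humidity. Injury rated 13 days later, 0 = no damage, 5 = total damage.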

Assay [4] deals with Echinochloa crus-galli (ECHCG). Briefly: Post-emergence herbicidal activity, Echinochloa crus-galli. Also on record: key: 5=total damage to plant; 0=no damage to plant. The procedure, abridged: as §2
Assay [5] has as its system Alopecurus myosuroides (ALOMY). Nature of the assay: Post-emergence herbicidal activity, Alopecurus myosuroides. On the set-up: key: 5=total damage to plant; 0=no damage to plant. The essentials: as §2
Assay [6] relates to Setaria faberi (SETFA). Nature of the assay: Pre-emergence herbicidal activity, Setaria faberi. On the set-up: key: 5=total damage to plant; 0=no damage to plant. The essentials: as §1
Assay [7] has as its system Triticum aestivium (TRZAW). Nature of the assay: Post-emergence herbicidal activity, Triticum aestivium. On the set-up: key: 5=total damage to plant; 0=no damage to plant. The essentials:
as §2

The test system of assay [8] is Echinochloa crus-galli (ECHCG). Nature of the assay: Pre-emergence herbicidal activity, Echinochloa crus-galli. Also on record: key: 5=total damage to plant; 0=no damage to plant. The procedure, abridged: as §1
For assay [9], the system named is Alopecurus myosuroides (ALOMY). Nature of the assay: Pre-emergence herbicidal activity, Alopecurus myosuroides. Also on record: key: 5=total damage to plant; 0=no damage to plant. The essentials:
as §1

For assay [10], the system named is Lolium perenne (LOLPE). Nature of the assay: Post-emergence herbicidal activity, Lolium perenne. The procedure, abridged:
as §2

Assay [11] deals with Avena fatua (AVEFA). Briefly: Post-emergence herbicidal activity, Avena fatua. The procedure, abridged: as §2
Assay [12] has as its system Triticum aestivium (TRZAW). Nature of the assay: Pre-emergence herbicidal activity, Triticum aestivium. Also on record: key: 5=total damage to plant; 0=no damage to plant. The essentials:
as §1

Regarding `COCCNC(=O)Nc1ccc(-c2cncc(F)c2)nc1C(F)(F)F` [Compound B60], in assay [1], the “Control of LOLPE after pre-emergence application (score 0-5)” value was determined as 1. In assay [2], the “Control of AVEFA after pre-emergence application (score 0-5)” value came out at 1. Further, in [3], the “Control of SETFA after post-emergence application (score 0-5)” value came to 5. Moreover, in [4], the “Control of ECHCG after post-emergence application (score 0-5)” value amounted to 5. For the same molecule, in assay [5], the “Control of ALOMY after post-emergence application (score 0-5)” value came out at 1. In addition, the “Control of SETFA after pre-emergence application (score 0-5)” value in [6] worked out at 2. In [7], the “Control of TRAZW after post-emergence application (score 0-5)” value was 1. Also, in [8], the “Control of ECHCG after pre-emergence application (score 0-5)” value was found to be 4. The “Control of ALOMY after pre-emergence application (score 0-5)” value in assay [9] was found to be 0. Also, the “Control of LOLPE after post-emergence application (score 0-5)” value in [10] is reported as 2. For the same molecule, the “Control of AVEFA after post-emergence application (score 0-5)” value in assay [11] is recorded as 2. Moreover, the “Control of TRAZW after pre-emergence application (score 0-5)” value in [12] turned out to be 0.
In the case of `CC(C)(C#N)OC(=O)Nc1ccc(-c2cncc(F)c2)nc1C(F)(F)F` [Compound B118], the “Control of LOLPE after pre-emergence application (score 0-5)” value in [1] amounted to 0. Further, the “Control of AVEFA after pre-emergence application (score 0-5)” value in [2] came to 0. Besides, in [3], the “Control of SETFA after post-emergence application (score 0-5)” value is 4. The “Control of ECHCG after post-emergence application (score 0-5)” value in [4] is 3. The “Control of ALOMY after post-emergence application (score 0-5)” value in assay [5] was 0. Besides, in [6], the “Control of SETFA after pre-emergence application (score 0-5)” value is listed as 4. The “Control of TRAZW after post-emergence application (score 0-5)” value in [7] was determined as 0. The “Control of ECHCG after pre-emergence application (score 0-5)” value in assay [8] was 2. In addition, the “Control of ALOMY after pre-emergence application (score 0-5)” value in assay [9] is 0. In addition, in assay [10], the “Control of LOLPE after post-emergence application (score 0-5)” value stood at 1. Besides, the “Control of AVEFA after post-emergence application (score 0-5)” value in assay [11] is 3. The “Control of TRAZW after pre-emergence application (score 0-5)” value in assay [12] is 0.
Consider `CC(C)(C)OC(=O)N(C(=O)OC(C)(C)C)c1ccc(-c2cncc(F)c2)nc1C#N` [Compound B114], for which the “Control of LOLPE after pre-emergence application (score 0-5)” value in assay [1] was found to be 1. For the same molecule, the “Control of AVEFA after pre-emergence application (score 0-5)” value in assay [2] is 1. Moreover, the “Control of SETFA after post-emergence application (score 0-5)” value in assay [3] turned out to be 5. Besides, the “Control of ECHCG after post-emergence application (score 0-5)” value in assay [4] was determined as 5. Also, the “Control of ALOMY after post-emergence application (score 0-5)” value in assay [5] is reported as 0. Moreover, in assay [6], the “Control of SETFA after pre-emergence application (score 0-5)” value is recorded as 5. In addition, in assay [7], the “Control of TRAZW after post-emergence application (score 0-5)” value is given as 1. The “Control of ECHCG after pre-emergence application (score 0-5)” value in assay [8] was 5. Further, in assay [9], the “Control of ALOMY after pre-emergence application (score 0-5)” value was 0. Further, the “Control of LOLPE after post-emergence application (score 0-5)” value in [10] came out at 3. For the same molecule, in assay [11], the “Control of AVEFA after post-emergence application (score 0-5)” value turned out to be 4. Moreover, the “Control of TRAZW after pre-emergence application (score 0-5)” value in [12] was 0.
For the molecule `C=CCOC(=O)Nc1ccc(-c2cncc(F)c2)nc1C(F)(F)F` [Compound B119], the “Control of LOLPE after pre-emergence application (score 0-5)” value in assay [1] is 0. The “Control of AVEFA after pre-emergence application (score 0-5)” value in assay [2] came out at 2. Also, the “Control of SETFA after post-emergence application (score 0-5)” value in assay [3] is reported as 5. Moreover, the “Control of ECHCG after post-emergence application (score 0-5)” value in assay [4] is given as 3. Besides, the “Control of ALOMY after post-emergence application (score 0-5)” value in assay [5] amounted to 0. Moreover, the “Control of SETFA after pre-emergence application (score 0-5)” value in [6] amounted to 5. Also, the “Control of TRAZW after post-emergence application (score 0-5)” value in assay [7] came out at 0. Besides, the “Control of ECHCG after pre-emergence application (score 0-5)” value in assay [8] was 3. Besides, the “Control of ALOMY after pre-emergence application (score 0-5)” value in [9] amounted to 0. In addition, in assay [10], the “Control of LOLPE after post-emergence application (score 0-5)” value came to 3. For the same molecule, the “Control of AVEFA after post-emergence application (score 0-5)” value in assay [11] is reported as 4. In addition, the “Control of TRAZW after pre-emergence application (score 0-5)” value in assay [12] is 0.
